Measurements published in patent publication US10543272B2, “Use of aminolevulinic acid and derivatives thereof” (Photocure ASA, priority 2007, dated 2020).
Structures can show the parent of a compound that is named as a salt.

Tests used:
Type in all cases: in vivo, human
[1] = system: patients with facial acne vulgaris; assay: Adverse events subsequent to light exposure (Phase II study)
Method: A clinical Phase II study involving 23 males and 20 females (age 18 years or more) with facial acne vulgaris (papulo-pustular acne and at least 15 inflammatory acne lesions on at least one side of the face) has been performed. Patients were randomized to receive either MAL cream on the face at a concentration of 160 mg/g (16% wt), 80 mg/g (8% wt) or 40 mg/g (4% wt). The cream was administered under occlusion. […] A light dose of 37 J/cm^2 using Photocure's Aktilite 128 LED light source was provided at a working distance between 5 and 8 cm. The average time to deliver said light dose was about 8 minutes. Safety was evaluated by medical questionnaire and adverse events, i.e., side effects, reporting. Additional data relating to the adverse events, i.e., side effects, observed subsequent to light exposure during the study are shown in the table below. For patients who received the standard PDT treatment, i.e., patients in the 3 h after MAL (160 mg/g) group, not only a larger number of adverse events were observed than for the patients in any of the other groups, but the adverse events were also more severe in nature, i.e., higher numbers of moderate and severe adverse events (AEs) were observed.

[2] = system: patients with facial acne vulgaris; assay: Pain during light exposure and post-PDT pain, visual analog scale (Phase II study); details: for Pain during light exposure, Mean: visual analog scale 0-100
Method: (§1) A clinical Phase II study involving 23 males and 20 females (age 18 years or more) with facial acne vulgaris (papulo-pustular acne and at least 15 inflammatory acne lesions on at least one side of the face) has been performed. Patients were randomized to receive either MAL cream on the face at a concentration of 160 mg/g (16% wt), 80 mg/g (8% wt) or 40 mg/g (4% wt). The cream was administered under occlusion. […] A light dose of 37 J/cm^2 using Photocure's Aktilite 128 LED light source was provided at a working distance between 5 and 8 cm. The average time to deliver said light dose was about 8 minutes. Safety was evaluated by medical questionnaire and adverse events, i.e., side effects, reporting. Mean pain during light exposure was evaluated by patients on a visual analog scale where 0=no pain and 100=worst possible pain.

[3] = system: patients with facial acne vulgaris; assay: Post-PDT erythema from patient journal (Phase II study)
Method: as §1, with “This information” for “Safety”, “derived from the journal kept” for “evaluated”, “patients. […] There is a significant difference among the 6 groups in the duration of post PDT erythema (p=0.03). […] In fact, all” for “medical questionnaire and adverse events, i.e., side effects, reporting. Mean pain during light exposure was evaluated by”, “in the standard PDT treatment group experienced post-PDT erythema.” for “on a visual analog scale where 0=no pain and 100=worst possible pain.”

[4] = 3 h, 160 mg/g (standard PDT), 7 patients
[5] = 160 mg/g 3 h and 80 mg/g 1.5 h groups together

In the case of `COC(=O)CCC(=O)CN` [MAL, methylaminolevulinate hydrochloride], the “Mild AEs Per Pat” value ([1]; 0.5 h, 80 mg/g) is reported as 0.6, the “Moderate AEs Per Pat” value ([1]; 0.5 h, 80 mg/g) is reported as 0 and the “Severe AEs Per Pat” value ([1]; 0.5 h, 80 mg/g) is reported as 0. The “Total AEs Per Pat” value ([1]; 0.5 h, 80 mg/g) was 0.667, the “Mild AEs” value ([1]; 0.5 h, 80 mg/g, 6 patients) was 4 and the “Moderate AEs” value ([1]; 0.5 h, 80 mg/g, 6 patients) was 0. The “Severe AEs” value ([1]; 0.5 h, 80 mg/g, 6 patients) was 0, the “Total AEs” value ([1]; 0.5 h, 80 mg/g, 6 patients) was 4 and the “Mild AEs Per Pat” value ([1]; 1 h, 40 mg/g) was 1.125. For the same compound, the “Moderate AEs Per Pat” value ([1]; 1 h, 40 mg/g) was 0, the “Severe AEs Per Pat” value ([1]; 1 h, 40 mg/g) was 0 and the “Total AEs Per Pat” value ([1]; 1 h, 40 mg/g) was 1.125. For the same compound, the “Mild AEs” value ([1]; 1 h, 40 mg/g, 8 patients) was 9, the “Moderate AEs” value ([1]; 1 h, 40 mg/g, 8 patients) was 0 and the “Severe AEs” value ([1]; 1 h, 40 mg/g, 8 patients) was 0. For the same compound, the “Total AEs” value ([1]; 1 h, 40 mg/g, 8 patients) was 9, the “Mild AEs Per Pat” value ([1]; 1 h, 80 mg/g) was 1.375 and the “Moderate AEs Per Pat” value ([1]; 1 h, 80 mg/g) was 0. For the same compound, the “Severe AEs Per Pat” value ([1]; 1 h, 80 mg/g) was 0, the “Total AEs Per Pat” value ([1]; 1 h, 80 mg/g) was 1.375 and the “Mild AEs” value ([1]; 1 h, 80 mg/g, 8 patients) was 11. The “Moderate AEs” value ([1]; 1 h, 80 mg/g, 8 patients) was 0, the “Severe AEs” value ([1]; 1 h, 80 mg/g, 8 patients) was 0 and the “Total AEs” value ([1]; 1 h, 80 mg/g, 8 patients) was 11. The “Mild AEs Per Pat” value ([1]; 1.5 h, 40 mg/g) was 2, the “Moderate AEs Per Pat” value ([1]; 1.5 h, 40 mg/g) was 0.125 and the “Severe AEs Per Pat” value ([1]; 1.5 h, 40 mg/g) was 0. The “Total AEs Per Pat” value ([1]; 1.5 h, 40 mg/g) was 2.125, the “Mild AEs” value ([1]; 1.5 h, 40 mg/g, 8 patients) was 16 and the “Moderate AEs” value ([1]; 1.5 h, 40 mg/g, 8 patients) was 1. The “Severe AEs” value ([1]; 1.5 h, 40 mg/g, 8 patients) was 0, the “Total AEs” value ([1]; 1.5 h, 40 mg/g, 8 patients) was 17 and the “Mild AEs Per Pat” value ([1]; 1.5 h, 80 mg/g) was 1.5. The “Moderate AEs Per Pat” value ([1]; 1.5 h, 80 mg/g) was 0.167, the “Severe AEs Per Pat” value ([1]; 1.5 h, 80 mg/g) was 0.167 and the “Total AEs Per Pat” value ([1]; 1.5 h, 80 mg/g) was 1.833. For the same compound, the “Mild AEs” value ([1]; 1.5 h, 80 mg/g, 6 patients) was 9, the “Moderate AEs” value ([1]; 1.5 h, 80 mg/g, 6 patients) was 1 and the “Severe AEs” value ([1]; 1.5 h, 80 mg/g, 6 patients) was 1. The “Total AEs” value ([1]; 1.5 h, 80 mg/g, 6 patients) was 11, the “Mild AEs Per Pat” value ([1]; 3 h, 160 mg/g (standard PDT)) was 2.14 and the “Moderate AEs Per Pat” value ([1]; 3 h, 160 mg/g (standard PDT)) was 1. The “Severe AEs Per Pat” value ([1]; 3 h, 160 mg/g (standard PDT)) was 0.429, the “Total AEs Per Pat” value ([1]; 3 h, 160 mg/g (standard PDT)) was 3.571 and the “Mild AEs” value [1, 4] was 15. For the same compound, the “Moderate AEs” value [1, 4] was 7, the “Severe AEs” value [1, 4] was 3 and the “Total AEs” value [1, 4] was 25. The “Cracked skin with bleeding” value ([1]; standard PDT treatment, 3 h after MAL (160 mg/g), did not occur with any other treatment modality) was “one patient”, the “Patients in whom light delivery had to be ended because of pain” value [2, 5] was 2 patients and the “Patients in whom light delivery had to be interrupted because of pain” value [2, 5] was 2 patients. The “Patients experiencing post-PDT pain” value ([2]; 0.5 h after MAL (80 mg/g)) was 1 out of 6, the “Pain during light exposure, Mean” value ([2]; MAL cream 40 mg/g, 1 h before red light 37 J/cm^2) was 2 and the “Pain during light exposure, Mean” value ([2]; MAL cream 40 mg/g, 1.5 h before red light 37 J/cm^2) was 19. The “Pain during light exposure, Mean” value ([2]; MAL cream 80 mg/g, 0.5 h before red light 37 J/cm^2) was 1, the “Pain during light exposure, Mean” value ([2]; MAL cream 80 mg/g, 1 h before red light 37 J/cm^2) was 9 and the “Pain during light exposure, Mean” value ([2]; MAL cream 80 mg/g, 1.5 h before red light 37 J/cm^2) was 32. For the same compound, the “Pain during light exposure, Mean” value ([2]; MAL cream 160 mg/g, 3 h before red light 37 J/cm^2 (standard PDT)) was 64, the “Patients experiencing post-PDT pain” value ([2]; all other groups (40 mg/g 1 h and 1.5 h; 80 mg/g 1 h and 1.5 h)) was “zero” and the “Patients experiencing post-PDT pain” value ([2]; standard PDT group (160 mg/g, 3 h)) was 5 out of 7. For the same compound, the “Mean duration of erythema (shortest)” value ([3]; 40 mg/g for 1 hour) was 0.5 days, the “Mean duration of erythema (longest)” value ([3]; 160 mg/g for 3 hours) was 14 days and the “Duration of post PDT erythema, Mean” value ([3]; MAL cream 40 mg/g, 1 h) was 4 days. For the same compound, the “n: number of patients experiencing post-PDT erythema” value (from here on “n: number”) ([3]; MAL cream 40 mg/g, 1 h, 8 patients in group) was 4, the “Duration of post PDT erythema, Mean” value ([3]; MAL cream 40 mg/g, 1.5 h) was 1.8 days and the “n: number” value ([3]; MAL cream 40 mg/g, 1.5 h, 8 patients in group) was 6. The “n: number” value ([3]; MAL cream 80 mg/g, 0.5 h, 6 patients in group) was 0, the “Duration of post PDT erythema, Mean” value ([3]; MAL cream 80 mg/g, 1 h) was 2.1 days and the “n: number” value ([3]; MAL cream 80 mg/g, 1 h, 8 patients in group) was 5. The “Duration of post PDT erythema, Mean” value ([3]; MAL cream 80 mg/g, 1.5 h) was 3.7 days, the “n: number” value ([3]; MAL cream 80 mg/g, 1.5 h, 6 patients in group) was 3 and the “Duration of post PDT erythema, Mean” value ([3]; MAL cream 160 mg/g, 3 h (standard PDT)) was 11.9 days. The “n: number” value ([3]; MAL cream 160 mg/g, 3 h (standard PDT), 7 patients in group) was 7 and the “Patients experiencing post-PDT erythema” value ([3]; standard PDT treatment group (160 mg/g, 3 h)) was “all patients”.
